Results reported in PubChem BioAssay (NCI).
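Briefly, cells in 96-well plates were exposed to five compound concentrations for 48 h, and endpoints were estimated by linear interpolation. GI50 = concentration required for 50% inhibition of growth. TGI denotes the concentration required for complete inhibition of growth.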

Assays:
Experiment in all cases: growth of human tumour cells (NCI), 48 h
[1] = test system: NCI-H522 lung
[2] = test system: M14 melanoma
[3] = test system: NCI-H460 lung
[4] = test system: SN12C renal
[5] = test system: UACC-62 melanoma
[6] = test system: BT-549 breast
[7] = test system: A549 NSCLC
[8] = test system: IGROV1 ovarian
[9] = test system: SF-539 CNS
[10] = test system: UO-31 renal

Row | SMILES | TGI [1] [µM] | TGI [2] [µM] | TGI [3] [µM] | TGI [4] [µM] | TGI [5] [µM] | TGI [6] [µM] | TGI [7] [µM] | TGI [8] [µM] | TGI [9] [µM] | TGI [10] [µM] | GI50 [1] [µM] | GI50 [2] [µM] | GI50 [3] [µM] | GI50 [4] [µM] | GI50 [5] [µM] | GI50 [6] [µM] | GI50 [7] [µM] | GI50 [8] [µM] | GI50 [9] [µM] | GI50 [10] [µM]
1 | CCc1nc(N)nc(N)c1-c1ccc(Cl)c([N+](=O)[O-])c1 | > 100 | 98.8 | > 100 | > 100 | > 86.4 | > 100 | > 100 | > 100 | 51.4 | > 100 |  |  |  |  |  |  |  |  |  | 
2 | CCOC(=O)C1=CCCC[C@H]1S(=O)(=O)Nc1ccc(F)cc1Cl | 90.1 | 96.7 | 82.1 | 94.5 | 72.7 | 61 | > 100 | > 100 | 55.2 | > 100 | 23.1 | 25.5 | 22.4 | 24.5 | 19.1 | 19.6 | 35.4 | 31 | 22.8 | 20.8
3 | CNC(=O)c1ccc(N2C(=S)N(c3cnc(C#N)c(C(F)(F)F)c3)C(=O)C23CCC3)cc1F | > 100 | > 100 | > 100 | > 100 | > 100 | > 100 | > 100 | > 100 | > 100 | > 100 | > 100 | > 100 | > 100 | > 100 | > 70.5 | > 77 | > 100 | > 100 | > 100 | > 72.1
4 | O=C1Nc2c(ccc(Cl)c2Cl)/C1=C/c1cc(Br)c(O)c(Br)c1 | > 28.6 | > 100 | 16.9 | > 100 | 13.3 | 17.5 | > 100 | > 55.8 | 14.8 | > 49.7 | 3.06 | 3.14 | 3.13 | 10.7 | 2.49 | 2.92 | 7.7 | 8.91 | 3.21 | 14.5
5 | COc1ccc2ncn(-c3cc(O[C@H](C)c4ccccc4C(F)(F)F)c(C(N)=O)s3)c2c1 | 2.51 | 3.23 | 2.99 | 7.74 | 4.58 | 7 | 4.22 | 10.5 | 4.07 | 12.4 | 0.0995 | 0.0989 | 0.088 | 1.19 | 0.142 | 0.474 | 0.119 | 0.312 | 0.131 | 1.79
6 | O=C(O)CSc1n[nH]c(=O)[nH]c1=O | > 100 | > 100 | > 100 | > 100 | > 100 | > 100 | > 100 | > 100 | > 100 | > 100 |  |  |  |  |  |  |  |  |  | 
